Data published in patent publication US4330552A, “Antiinflammatory 4,5-diaryl-2-arylthioimidazoles” (E. I. Du Pont de Nemours and Company, priority 1980, dated 1982).

Tested on: adjuvant-induced arthritis in rats
Assay: Established Adjuvant-Induced Arthritis in Rats (paw volume reduction)
Assay type: in vivo, Lewis (Wistar) male rats
Conditions: oral gavage once daily for 7 days (days 14-20), paw volume on day 21; for ED50: Rattus norvegicus, estimated from dose-response regression lines by inspection, read-out: Adjuvant Arthritis ED50 (50% decrease from control paw volume)

SMILES | ED50 | percent paw volume reduction at the dose indicated (25 mg/kg) | other results
COc1ccc(-c2nc(Sc3ccc(Cl)cc3)[nH]c2-c2ccc(OC)cc2)cc1 [Example 1, 4,5-Bis(4-methoxyphenyl)-2-(4-chlorophenylthio)-1H-imidazole] | 10 mg/kg | – | –
COc1ccc(-c2nc(Sc3ccc(F)cc3)[nH]c2-c2ccc(OC)cc2)cc1 [Example 3] | – | 35% | –
COc1ccc(-c2nc(S(=O)(=O)c3ccc(Cl)cc3)[nH]c2-c2ccc(OC)cc2)cc1 [Example 5, 4,5-Bis(4-methoxyphenyl)-2-(4-chlorophenylsulfonyl)-1H-imidazole] | – | 31% | –
COc1ccc(Sc2nc(-c3ccc(OC)cc3)c(-c3ccc(OC)cc3)[nH]2)cc1 [Example 4] | 13 mg/kg | – | –
COc1ccc(-c2nc(S(=O)(=O)c3ccc(OC)cc3)[nH]c2-c2ccc(OC)cc2)cc1 [Example 8] | – | 16% | –
COc1ccc(-c2nc(S(=O)(=O)c3ccccc3)[nH]c2-c2ccc(OC)cc2)cc1 [Example 6] | 58 mg/kg | – | –
COc1ccc(-c2nc(S(=O)(=O)c3ccc(F)cc3)[nH]c2-c2ccc(OC)cc2)cc1 [Example 7] | – | – | percent paw volume reduction at the dose indicated (27 mg/kg): 0%
COc1ccc(-c2nc(Sc3ccccc3)[nH]c2-c2ccc(OC)cc2)cc1 [Example 2] | – | 32% | percent paw volume reduction at the dose indicated (50 mg/kg): 28%; percent paw volume reduction at the dose indicated (100 mg/kg): 32%
